According to the NIST ThermoML archive (doi:10.1016/j.jct.2007.10.010):
Where “and” joins values, the source holds several entries; their conditions need not be identical. Equal entries are not always repeated.

Tests used:
[1] = 101 kPa, Liquid
[2] = refractive index (Na D-line) (dimensionless); details: 298.15 K; 101.33 kPa; Liquid; Standard Abbe refractometry
[3] = xn = mol fraction of the nth substance listed; details: 101 kPa, Liquid

CCCCCCCC [octane]
[1]
Details	mass density
298.15 K	698.62 kg/m3 [middle of 4 runs]
308.15 K	690.44 kg/m3 and 690.43 kg/m3 and 690.45 kg/m3
318.15 K	682.47 kg/m3 and 682.49 kg/m3
328.15 K	674.55 kg/m3 and 674.56 kg/m3 and 674.54 kg/m3

Details	refractive index
[2]	1.395

CCCCCCCC [octane] + Cc1cc(C)cc(C)c1
[3], x1 = 1
Details	mass density [kg/m3]
298.15 K	698.62
308.15 K	690.45
318.15 K	682.49
328.15 K	674.54

CCCCCCCC [octane] + Cc1cccc(C)c1
[3], x1 = 1
Details	mass density [kg/m3]
298.15 K	698.63
308.15 K	690.43
318.15 K	682.49
328.15 K	674.56

CCCCCCCC [octane] + Cc1ccccc1
mass density [kg/m3], [3]
Details	298.15 K	308.15 K	318.15 K	328.15 K
x1 = 0.0654	845.89	836.6	–	–
x1 = 0.0675	–	–	826.95	817.77
x1 = 0.1229	–	–	814.22	805.12
x1 = 0.1283	831.23	822.06	–	–
x1 = 0.1979	816.17	807.1	–	–
x1 = 0.2052	–	–	796.69	787.73
x1 = 0.2524	805.13	796.14	–	–
x1 = 0.2613	–	–	785.56	776.68
x1 = 0.312	793.74	784.82	–	–
x1 = 0.3142	–	–	775.67	766.87
x1 = 0.3931	779.27	770.46	–	–
x1 = 0.398	–	–	761	752.32
x1 = 0.4544	769.05	760.31	–	–
x1 = 0.4553	–	–	751.61	743.01
x1 = 0.5388	–	–	738.82	730.32
x1 = 0.5409	755.59	746.93	–	–
x1 = 0.6029	746.56	737.98	–	–
x1 = 0.6078	–	–	728.94	720.55
x1 = 0.6679	–	–	720.81	712.48
x1 = 0.6717	737.09	728.58	–	–
x1 = 0.7202	730.75	722.3	–	–
x1 = 0.7262	–	–	713.32	705.06
x1 = 0.7985	–	–	704.51	696.33
x1 = 0.8064	720.08	711.7	–	–
x1 = 0.863	–	–	697.07	688.97
x1 = 0.8727	712.36	704.05	–	–
x1 = 0.9143	–	–	691.43	683.39
x1 = 0.9312	705.88	697.62	–	–
x1 = 1	698.61	690.44	682.49	674.55
